{"source": "patent EP0497921B1", "about": "“METHOD FOR INHIBITING ENZYMATIC SYNTHESIS OF NUCLEIC ACIDS USING ISOPSORALENS” (ISAACS, Stephen T., priority 1989, dated 1991)", "key": {"[1]": {"details": "water; cited from earlier work"}, "Taq polymerase": {"biological_target": "Taq polymerase (Thermus aquaticus, UniProt P19821)", "sequence (P19821 whole entry)": "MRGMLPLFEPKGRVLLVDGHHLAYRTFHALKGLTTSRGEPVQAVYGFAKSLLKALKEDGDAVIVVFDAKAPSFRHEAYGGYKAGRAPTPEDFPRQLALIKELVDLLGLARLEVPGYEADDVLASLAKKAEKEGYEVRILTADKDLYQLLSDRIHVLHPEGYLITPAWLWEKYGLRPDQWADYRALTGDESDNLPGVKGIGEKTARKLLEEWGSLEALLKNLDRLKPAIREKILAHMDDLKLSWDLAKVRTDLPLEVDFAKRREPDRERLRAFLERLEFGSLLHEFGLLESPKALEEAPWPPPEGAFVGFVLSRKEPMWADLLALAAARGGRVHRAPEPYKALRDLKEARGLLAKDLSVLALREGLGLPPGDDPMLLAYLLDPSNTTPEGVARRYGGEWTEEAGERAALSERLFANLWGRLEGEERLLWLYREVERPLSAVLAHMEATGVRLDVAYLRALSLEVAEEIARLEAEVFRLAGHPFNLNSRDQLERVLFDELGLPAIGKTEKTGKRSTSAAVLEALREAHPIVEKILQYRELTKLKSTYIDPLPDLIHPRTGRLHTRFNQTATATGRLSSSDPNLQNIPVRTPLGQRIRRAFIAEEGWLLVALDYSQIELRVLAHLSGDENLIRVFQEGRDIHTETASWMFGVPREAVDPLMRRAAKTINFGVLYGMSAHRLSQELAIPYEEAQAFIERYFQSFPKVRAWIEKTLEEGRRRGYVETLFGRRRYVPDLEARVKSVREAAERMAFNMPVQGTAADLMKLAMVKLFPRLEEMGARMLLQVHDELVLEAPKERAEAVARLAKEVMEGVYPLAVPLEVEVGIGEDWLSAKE", "assay": "Primer extension on 71-mer after random addition of compound or addition of photoproduct", "format": "biochemical", "from_the_text": "In this experiment, the ability of AMIP, AMDMIP and MIP to block replication of 71-mer is investigated by randomly adding each compound to the 71-mer. of course, addition may only be random in the sense that one or more adducts may be formed with any one strand of nucleic acid. The actual placement of the isopsoralen may be governed by preferential binding at particular sites (e.g. A:T). In addition to blockage by random adducts, photoproducts of the various isopsoralens may be providing an inhibitory effect. No attempt to separate the effects of photoproduct from the effects of covalent adducts on the 71-mer template was made in this series of experiments.\nIn these experiments, the 71-mer template (10^-9 M) was primed with ^32P-SK-39 (10^-8) and extended with Taq polymerase in a total volume of 20 µl. The dNTP concentration was 200 µM. In the control samples, the 71-mer, the primer, and the dNTPs were mixed in Taq buffer in a volume of 18 µl. These samples were initially denatured at 95°C for 5 minutes, followed by equilibration at 550C for 3 minutes. Taq enzyme was then added (0.5 units) and the extension reaction was carried out for 5 minutes at 55°C. The reaction was stopped by making the solution 10 mM in EDTA. In another set of samples, the 71-mer in 10 µl was mixed with either AMIP (200 µg/ml), AMDMIP (200 µg/ml), or MIP (60 µg/ml). Half of these samples were irradiated for 15 minutes on the CE-I device at 25°C. The other half was kept in the dark as controls. These samples were then mixed with the primer and dNTPs as before, and were subjected to the same thermal profile and extension reactions as the samples that were described earlier. The results were examined by PAGE. The extended product bands were identified by autoradiography, excised and counted (data not shown).\nIn this experiment, the ability of two different Phenylazide derivatives (see Table 1), photobiotin (Vector Labs) and monoazide ethidium chloride, to block replication of 71-mer was investigated by randomly adding each compound to the 71-mer. Again, addition may only be random in the sense that one or more adducts may be formed with any one strand of nucleic acid. The actual placement of these compounds may be governed by preferential binding at particular sites (e.g. A:T). In addition to blockage by random adducts, there may be inhibition by photoproducts. As in Example 23, no attempt was made to separate the impact of photoproducts from that of covalent binding of photoreactive compound on the 71-mer.\nThe two compounds, photobiotin and monoazide ethidium chloride, have different spectral characteristics. To activate these compounds, two different wavelength regions were selected using a single light source (General Electric Sunlamp, Model RSM, 275 watt). The light source was positioned 10 cm above uncapped Eppendorph tubes which contained samples to be irradiated. The samples were kept on ice during irradiation. A pyrex dish was placed between the lamp and the samples.\nFor samples containing photobiotin, 2.5 cm of water was added to the pyrex dish to help remove some of the infrared radiation. The samples were irradiated for 15 minutes.\nFor samples containing monoazide ethidium chloride, wavelengths less than 400 nm were filtered out by using 2.5 cm of an aqueous solution of 2.9 M NaNO2. Removal of short wavelengths (i.e. wavelengths shorter than 400 nm) is necessary for the use of monoazide ethidium chloride. Irradiation of this compound with shorter wavelengths results in conversion to non-active forms (data not shown). Wavelengths below 400 nm are therefore undesirable for use with this compound.\nIn this experiment, the 71-mer template (2 x 10^-9 M) in 10 µl was mixed with either no photoreactive compound, photobiotin (6 x 10^-6 M), or monoazide ethidium (1.4 x 10^-3 M). Half of each of these samples were irradiated on ice for 15 minutes with wavelengths appropriate for each specific photoreactive compound. […]"}, "HIV 115-mer": {"system": "HIV 115-mer", "assay": "PCR with pre-irradiated photobiotin or monoazide ethidium chloride", "format": "biochemical", "experimental": "In this experiment, photobiotin and monoazide ethidium chloride were tested as PCR sterilization reagents. The temporal steps were performed to examine photoproduct effects (if any). Solutions of photobiotin and monoazide ethidium chloride were made up in 1 x Taq buffer. Concentrations of photobiotin ranged form 7 x 10^-4 M to […]: concentrations of the monoazide ethidium chloride ranged from 3 x 10^-9 M to 3 x 10^-10M. […] Each compound solution was divided into two parts: One part was irradiated under a GE sunlamp through a pyrex filter (300nm cut-off); the other half was irradiated under a GE sunlamp through a 2.9 M NaNO2 liquid filter (400 nm cut-off). Irradiations were carried out on ice for 15 minutes. After irradiation, aliquots of each tube were carried over into tubes containing PCR reagents and target (HIV 115-mer); PCR was then carried out for 30 cycles in the presence of α-^32P-dCTP. After amplification aliquots were analyzed on 12% acrylamide/8M urea gels."}, "[2]": {"system": "Hind-III restriction fragments of lambda DNA", "assay": "Photobinding of BIODMIP to lambda DNA fragments", "format": "binding", "details": "100 µg/ml plus 50 µg additional; two 30 minute irradiations at room temperature with the PTI device", "experimental": "BIODMIP (100 µg/ml) was irradiated for 30 minutes at room temperature with the PTI device in 500 µl of 1 x TE buffer with 2 µg of Hind-III restriction fragments of lambda DNA. After the first irradiation, the mixture was transferred to a new tube containing 50 µg additional BIODMIP and this was incubated at 37°C for one hour to dissolve the compound. This was followed by a second 30 minute irradiation at room temperature with the PTI device. It was observed that, under these conditions BIODMIP added to the DNA at a ratio of 1 covalently bound BIODMIP per 20 base pairs."}, "[3]": {"assay": "Solubility of photoreactive compounds in 1 X TE (optical density of filtrate)", "format": "physicochemical", "details": "nd = not detectable (solubility was less than 1 µg/ml)", "experimental": "The solubilities of AMIP, AMDMIP, DMIP, MIP and isopsoralen (IP) were determined experimentally according to the scheme set forth in Figure 5. To perform the solubility measurement, it was first necessary to establish known optical densities for a 1 µg/ml solution of each compound. These were determined by preparing either ethanolic or aqueous stocks of each compound at known concentrations in 1 x TE, then measuring the optical density of each solution. From this information, the absorption of a 1 µg/ml solution was computed. Alternatively, the extinction coefficient may be thus determined and used in the same fashion. In this manner, the following absorption data was collected:\nFollowing this step, undissolved compound was removed by filtration using a 0.2 u nylon-66 syringe filter (Arco LC13; Gelman). The concentration of the remaining soluble compound was then determined by measuring the optical density of the filtrate and computing the solubility from the known optical density of a 1 µg/ml solution of that compound. The solubility of the compounds was thus determined to be as follows: […]"}, "human placental DNA": {"system": "human placental DNA", "assay": "PCR amplification with unirradiated AMDMIP and DMSO co-solvent", "format": "biochemical", "details": "no AMDMIP, average of duplicates, 139,000 at 0% DMSO", "experimental": "In this example, the effect of DMSO on PCR amplification in the presence of high concentrations of sterilizing compound (AMDMIP) was investigated. Samples were prepared for PCR which contained 1 µg of human placental DNA either with or without (unirradiated) AMDMIP (200 µg/ml). The samples were amplified 30 cycles under standard PCR conditions in the presence of 0%, 1%, 5% or 10% DMSO. The reaction mix contained α-^32P-dCTP. Following amplification, the samples were analyzed by PAGE (data not shown)."}, "[4]": {"system": "DNA polymerase I from E. coli. B", "details": "cited from earlier work; for template activity lost by modified DNA: C.M. Ou et al., covalently modified DNA"}, "Taq I DNA polymerase": {"system": "Taq I DNA polymerase", "assay": "Primer extension on site-specific 71-mer monoadduct template", "format": "biochemical, Thermus aquaticus", "details": "55°C; 0.5, 1.0, 5.0 mins; PAGE, autoradiography", "experimental": "In this experiment, monoadducted 71-mers (as well as unmodified 71-mers) were used in template-dependent enzymatic extension. AMIP, AMDMIP, and MIP 71-mer monoadducts were made as in Example 17. Extension was carried out as in Example 18 except that in this experiment, Taq I DNA polymerase, a thermostable DNA polymerase isolated from Thermus aquaticus (Stratagene, Inc., La Jolla, CA) was assessed for its ability to read past isopsoralens.\nThe reaction mixture was in 80 µl total volume and comprised 1 x Taq buffer, 200 µM each of dNTP's, 0.05 units of Taq per µl of reaction volume; 1 x 10^-9 M in 71-mer MA; 1 x 10^-8 M in ^32P-labelled SK-39. Each reaction was set up with everything except Taq polymerase. The samples were initially heated to 95°C for 5 mins, then incubated at 55°C for 3 mins. The extension reaction was initiated by addition of Taq polymerase. At the indicated time points (0.5, 1.0, 5.0 mins), 20 µl of the reaction mix was removed to a tube containing 1 µl of 0.5 M EDTA to stop the reaction. All products were analyzed on a 20% polyacrylamide, 7 M urea gel followed by autoradiography.\nThis experiment investigated whether blocking of Taq polymerase by monoadducts is complete or whether monoadducts can be bypassed by the enzyme. In order to view the process of bypass synthesis, it is necessary to cycle the extension reaction of the primer with the 71-mer templates. Cycling in this case consists of mixing the primer with the 71-mer template, adding Taq polymerase and appropriate reagents, extending, heating to induce strand separation, reannealing of the primer to the 71-mer template, extending again, and subsequent stand separation. This process can be repeated as necessary. During this process, only the complement of the 71-mer template is being synthesized. It is accumulating in a linear fashion with the number of thermal cycles (in contrast to PCR where both strands are being synthesized and accumulate geometrically).\nThe templates and reaction conditions were as in Example 19 above except that three samples were used for each monoadduct and each sample was tested under different conditions: • Samples (1): one sample for each monoadduct was used to carry out extension at 55°C as in Example 43; • Samples (2): one sample for each monoadduct was used to carry out extension by the following series of steps: denaturing at 95°C; incubating for 30 seconds at 55°C; adding Taq polymerase for 3 minutes at 550C; cooling the reaction for 1 minute at 7°C; stopping the reaction with EDTA for one minute at 95°C: • Samples (3): one sample for each monoadduct was used to carry out extension by repeating the following series of steps nine times: denaturing at 95°C; incubating for 30 seconds at 55°C; adding Taq polymerase for 3 minutes at 55°C; cooling the reaction for 1 minute at 7°C. At the end, the reaction is stopped with EDTA for one minute at 95°C.\nTo investigate this question further, a new 5-MIP monoadducted 71-mer was prepared by repurification of the HPLC purified 5-MIP monoadducted 15-mer by PAGE. In this way, more of the non-monoadducted 15-mer was removed prior to ligation. The purified 71-mer was then used as template in an extension experiment as described in Example 20. After 10 cycles, there was still evidence of extension product (Figure 34).\nMonoadducted 71-mer was constructed as described, but for HMT. Extension was carried out and analyzed as before on PAGE. […] Full length 71-mer is not made and a shorter strand corresponding to the position of the HMT adduct was made."}}, "note": "Read-outs that look alike come from different tables or passages of the source."}
{"compound": "Cc1cc2c(ccc3c(C)cc(=O)oc32)o1", "note": "[DMIP, 4,5'-Dimethylisopsoralen]", "values": [{"measurement": "maximum aqueous solubility", "setting": "[1]", "result": 8, "unit": "µg/mL"}]}
{"compound": "monoazide ethidium chloride [reference compound]", "values": [{"measurement": "extension, dark control", "setting": "Taq polymerase; photobiotin (6 x 10^-6 M) or monoazide ethidium (1.4 x 10^-3 M), kept in the dark", "result": "inhibition of extension"}, {"measurement": "inhibition of PCR by pre-irradiated compound", "setting": "HIV 115-mer; irradiated on ice 15 minutes under GE sunlamp before addition to PCR, 30 cycles", "result": "does not inhibit PCR"}]}
{"compound": "Cc1oc2ccc3c(C)cc(=O)oc3c2c1CN(C)CCCCCCN(C)C(=O)CCCCCNC(=O)CCCC[C@@H]1SC[C@@H]2NC(=O)N[C@@H]21", "note": "[BIODMIP, 4'-N-[N,N'-dimethyl-N'-(6-{biotinamido} -hexanoate)-1,6-hexanediamine] -methyl-4,5'-dimethylisopsoralen]", "values": [{"measurement": "ratio of 1 covalently bound BIODMIP per n base pairs", "setting": "[2]", "result": 20, "unit": "base pairs"}]}
{"compound": "O=c1ccc2ccc3occc3c2o1", "note": "[IP, isopsoralen]", "values": [{"measurement": "Solubility in 1 X TE", "setting": "[3]", "result": 2, "unit": "µg/mL"}]}
{"compound": "C[S+](C)[O-]", "note": "[DMSO, dimethyl sulfoxide]", "values": [{"measurement": "CPM of product bands", "setting": "human placental DNA; 1% DMSO", "result": "137,000 CPM"}, {"measurement": "CPM of product bands", "setting": "human placental DNA; 5% DMSO", "result": "94,000 CPM"}, {"measurement": "CPM of product bands", "setting": "human placental DNA; 10% DMSO", "result": "76,000 CPM"}]}
{"compound": "CN(CCCNC(=O)CCCC[C@@H]1SC[C@@H]2NC(=O)N[C@@H]21)CCCNc1ccc(N=[N+]=[N-])cc1[N+](=O)[O-]", "note": "[photobiotin, reference compound]", "values": [{"measurement": "extension after irradiation", "setting": "Taq polymerase; photobiotin (6 x 10^-6 M), irradiated on ice for 15 minutes, GE sunlamp", "result": "inhibition only after irradiation"}, {"measurement": "concentration at which pre-irradiated compound shut down PCR", "setting": "HIV 115-mer; highest concentration used, 115-mer amplified at all lower concentrations", "result": 700, "unit": "µM"}]}
{"compound": "COc1c2occc2cc2ccc(=O)oc12", "note": "[Compound 8-MOP, 8-methoxypsoralen]", "values": [{"measurement": "template activity lost by modified DNA", "setting": "[4]", "result": 97, "unit": "%"}]}
{"compound": "COc1cc(OC)c2ccc(=O)oc2c1", "note": "[DMC, 5,7-dimethoxycoumarin]", "values": [{"measurement": "template activity lost by modified DNA", "setting": "[4]", "result": 50, "unit": "%"}]}
{"compound": "Cc1oc2c(C)c3oc(=O)cc(C)c3cc2c1CO", "note": "[HMT, 4'-hydroxymethyl-4,5',8-trimethylpsoralen]", "values": [{"measurement": "Taq polymerase extension on 71-mer monoadduct template", "setting": "Taq I DNA polymerase", "result": "stop Taq polymerase"}, {"measurement": "inhibition of E. Coli polymerase I by covalently bound monoadducts", "setting": "[4]; Piette and Hearst 1983, nick-translating a double-stranded template", "result": "not inhibited"}, {"measurement": "inhibition of E. Coli polymerase I by covalently bound monoadducts", "setting": "[4]; Piette and Hearst 1985, single-stranded template (bacteriophage DNA)", "result": "inhibited"}]}
